Measured values: patent US5541175A, “Cephalosporin antibiotics” (Lucky, Ltd., priority 1993, dated 1996)
In brackets after ≈: the same amount, converted by molar mass. Where two headings read alike, the source gives them in different places.

Legend:
Assay in all cases: Minimum inhibitory concentration (agar 2-fold dilution)
Assay type in all cases: cell-based
[1] = tested on: Escherichia coli TEM3 3455E; conditions: TEM33455E, 20 h, read-out: Minimum Inhibitory Concentration
Protocol: (§1) The minimum inhibitory concentration was determined by diluting the test compounds according to 2-fold dilution, suspending them in Muller-Hinton agar medium, inoculating 2 μl of the suspension containing the test strains having 10^7 CFU (Colony Forming Unit) per 1 ml into the medium and then culturing the test strains at 37° C. for 20 hours.

[2] = tested on: Escherichia coli TEM7 3457E; conditions: TEM73457E, 20 h, read-out: Minimum Inhibitory Concentration
Protocol: as §1

[3] = tested on: Staphylococcus aureus 241; conditions: read-out: Minimum Inhibitory Concentration
Protocol: as §1

[4] = tested on: Streptococcus faecalis 29212A; conditions: Enterococcus faecalis, read-out: Minimum Inhibitory Concentration
Protocol: as §1

[5] = tested on: Escherichia coli TEM5 3739E; conditions: TEM53739E, 20 h, read-out: Minimum Inhibitory Concentration
Protocol: as §1

[6] = tested on: Staphylococcus aureus epidermidis 887E; conditions: read-out: Minimum Inhibitory Concentration
Protocol: as §1

Escherichia coli 851E = conditions: E. coli 851E, Muller-Hinton agar, 37° C., 20 hours
Protocol: as §1

[7] = tested on: Staphylococcus aureus giorgio; conditions: read-out: Minimum Inhibitory Concentration
Protocol: as §1

[8] = tested on: Escherichia coli TEM1 1193E; conditions: TEM11193E, 20 h, read-out: Minimum Inhibitory Concentration
Protocol: as §1

Proteus vulgaris 6059A = conditions: read-out: Minimum Inhibitory Concentration
Protocol: as §1

Escherichia coli 3190Y = conditions: read-out: Minimum Inhibitory Concentration
Protocol: as §1

[9] = tested on: Klebsiella aerogenes SHV-1 1976E; conditions: SHV11976E
Protocol: as §1

[10] = tested on: Enterobacter cloacae IND + VE 1194E; conditions: read-out: Minimum Inhibitory Concentration
Protocol: as §1

[11] = tested on: Serratia marcescens 1826E; conditions: read-out: Minimum Inhibitory Concentration
Protocol: as §1

[12] = tested on: Pseudomonas aeruginosa 10145; conditions: read-out: Minimum Inhibitory Concentration
Protocol: as §1

[13] = tested on: Salmonella typhimurium 14028A; conditions: Salmonella enterica, read-out: Minimum Inhibitory Concentration
Protocol: as §1

[14] = tested on: Pseudomonas aeruginosa 1912E; conditions: read-out: Minimum Inhibitory Concentration
Protocol: as §1

[15] = tested on: Escherichia coli TEM9 2639E; conditions: TEM92639E, 20 h, read-out: Minimum Inhibitory Concentration
Protocol: as §1

[16] = tested on: Staphylococcus aureus 6538P; conditions: read-out: Minimum Inhibitory Concentration
Protocol: as §1

[17] = tested on: Citrobacter diversus 2046E; conditions: Citrobacter koseri, read-out: Minimum Inhibitory Concentration
Protocol: as §1

Staphylococcus aureus 77 = conditions: read-out: Minimum Inhibitory Concentration
Protocol: as §1

[18] = tested on: Pseudomonas aeruginosa 6065; conditions: read-out: Minimum Inhibitory Concentration
Protocol: as §1

Escherichia coli 10536 = conditions: Escherichia coli, 10536, 20 h, read-out: Minimum Inhibitory Concentration
Protocol: as §1

[19] = tested on: Acinetobacter calcoaceticus 15473A; conditions: read-out: Minimum Inhibitory Concentration
Protocol: as §1

[20] = tested on: Klebsiella aerogenes K1 + 1082E; conditions: 20 h, read-out: Minimum Inhibitory Concentration
Protocol: as §1

Enterobacter cloacae P99 = conditions: P99, 20 h, read-out: Minimum Inhibitory Concentration
Protocol: as §1

CC(C)(O/N=C(\C(=O)N[C@@H]1C(=O)N2C(C(=O)[O-])=C(C[n+]3ccccc3)CS[C@H]12)c1csc(N)n1)C(=O)O [CAZ, Ceftazidime, reference compound]
MIC [1]: 8 µg/mL (≈ 14.6 µM)
MIC [2]: 16 µg/mL (≈ 29.3 µM)
MIC ([3]; Staphylococcus aureus, 241, 20 h): > 128 µg/mL
MIC ([4]; 29212A, 20 h): > 128 µg/mL
MIC [5]: 8 µg/mL (≈ 14.6 µM)
MIC ([6]; 20 h): > 128 µg/mL
MIC (Escherichia coli 851E): 0.063 µg/mL (≈ 0.115 µM)
MIC ([7]; 20 h): 4 µg/mL (≈ 7.32 µM)
MIC [8]: 0.25 µg/mL (≈ 0.457 µM)
MIC (Proteus vulgaris 6059A; 6059A, 20 h): 0.063 µg/mL (≈ 0.115 µM)
MIC (Escherichia coli 3190Y; 3190Y, 20 h): 0.063 µg/mL (≈ 0.115 µM)
MIC ([9]; 20 h): 0.25 µg/mL (≈ 0.457 µM)
MIC ([10]; 20 h): 128 µg/mL (≈ 234 µM)
MIC ([11]; 1826E, 20 h): 0.25 µg/mL (≈ 0.457 µM)
MIC ([12]; Pseudomonas aeruginosa, 10145, 20 h): 2 µg/mL (≈ 3.66 µM)
MIC ([13]; TYPHIMURIUM, 20 h): 0.25 µg/mL (≈ 0.457 µM)
MIC ([14]; 1912E, 20 h): 1 µg/mL (≈ 1.83 µM)
MIC [15]: > 128 µg/mL
MIC ([16]; 6538P, 20 h): 16 µg/mL (≈ 29.3 µM)
MIC ([17]; 2046E, 20 h): 0.5 µg/mL (≈ 0.915 µM)
MIC (Staphylococcus aureus 77; Staphylococcus aureus, 77, 20 h): 32 µg/mL (≈ 58.5 µM)
MIC ([18]; Pseudomonas aeruginosa, 6065, 20 h): 16 µg/mL (≈ 29.3 µM)
MIC (Escherichia coli 10536): 0.13 µg/mL (≈ 0.238 µM)
MIC ([19]; 15473A, 20 h): 2 µg/mL (≈ 3.66 µM)
MIC [20]: 0.5 µg/mL (≈ 0.915 µM)
MIC (Enterobacter cloacae P99): 64 µg/mL (≈ 117 µM)

Nc1cc(N)[n+](C/C=C/C2=C(C(=O)[O-])N3C(=O)[C@@H](NC(=O)/C(=N\O[C@@H](C(=O)O)c4ccc(O)c(O)c4)c4csc(N)n4)[C@H]3SC2)cn1 [Compound I-1b, 7-[(Z)-2-(2-aminothiazol-4-yl)-2-(α-carboxy-3,4-dihydroxybenzyloxyimino)acetamido]-3-[(E)-3-(4,6-diaminopyrimidinium-1-yl)-1-propen-1-yl]-3-cephem-4-carboxylate]
MIC [1]: 0.5 µg/mL (≈ 0.731 µM)
MIC [2]: 0.25 µg/mL (≈ 0.366 µM)
MIC ([3]; Staphylococcus aureus, S. aureus 241, Muller-Hinton agar, 37° C., 20 hours): 128 µg/mL (≈ 187 µM)
MIC ([4]; S. faecalis 29212A, Muller-Hinton agar, 37° C., 20 hours): 8 µg/mL (≈ 11.7 µM)
MIC [5]: 2 µg/mL (≈ 2.93 µM)
MIC ([6]; S. aureus epidermidis 887E, Muller-Hinton agar, 37° C., 20 hours): 64 µg/mL (≈ 93.6 µM)
MIC (Escherichia coli 851E): 0.13 µg/mL (≈ 0.19 µM)
MIC ([7]; S. aureus giorgio, Muller-Hinton agar, 37° C., 20 hours): 0.5 µg/mL (≈ 0.731 µM)
MIC [8]: 0.25 µg/mL (≈ 0.366 µM)
MIC (Proteus vulgaris 6059A; P. vulgaris 6059A, Muller-Hinton agar, 37° C., 20 hours): 0.5 µg/mL (≈ 0.731 µM)
MIC (Escherichia coli 3190Y; E. coli 3190Y, Muller-Hinton agar, 37° C., 20 hours): 0.13 µg/mL (≈ 0.19 µM)
MIC ([9]; K. aerogenes SHV-1 1976E, Muller-Hinton agar, 37° C., 20 hours): 1 µg/mL (≈ 1.46 µM)
MIC ([10]; E. cloacae IND + VE 1194E, Muller-Hinton agar, 37° C., 20 hours): 64 µg/mL
MIC ([11]; S. marcescens 1826E, Muller-Hinton agar, 37° C., 20 hours): 2 µg/mL (≈ 2.93 µM)
MIC ([12]; Pseudomonas aeruginosa, P. aeruginosa 10145, Muller-Hinton agar, 37° C., 20 hours): 32 µg/mL (≈ 46.8 µM)
MIC ([13]; S. typhimurium 14028A, Muller-Hinton agar, 37° C., 20 hours): 0.13 µg/mL (≈ 0.19 µM)
MIC ([14]; P. aeruginosa 1912E, Muller-Hinton agar, 37° C., 20 hours): 64 µg/mL (≈ 93.6 µM)
MIC [15]: 2 µg/mL (≈ 2.93 µM)
MIC ([16]; S. aureus 6538P, Muller-Hinton agar, 37° C., 20 hours): 0.5 µg/mL (≈ 0.731 µM)
MIC ([17]; C. diversus 2046E, Muller-Hinton agar, 37° C., 20 hours): 16 µg/mL (≈ 23.4 µM)
MIC (Staphylococcus aureus 77; Staphylococcus aureus, S. aureus 77, Muller-Hinton agar, 37° C., 20 hours): 2 µg/mL (≈ 2.93 µM)
MIC ([18]; Pseudomonas aeruginosa, P. aeruginosa 6065, Muller-Hinton agar, 37° C., 20 hours): 32 µg/mL (≈ 46.8 µM)
MIC (Escherichia coli 10536): 0.13 µg/mL (≈ 0.19 µM)
MIC ([19]; A. calcoaceticus 15473A, Muller-Hinton agar, 37° C., 20 hours): 4 µg/mL (≈ 5.85 µM)
MIC [20]: 2 µg/mL (≈ 2.93 µM)
MIC (Enterobacter cloacae P99): 128 µg/mL (≈ 187 µM)
